Source: publication PMC8396041, “A Michael Acceptor Analogue, SKSI-0412, Down-Regulates Inflammation and Proliferation Factors through Suppressing Signal Transducer and Activator of Transcription 3 Signaling in IL-17A-Induced Human Keratinocyte” (International Journal of Molecular Sciences, 2021)

Target: T1, STAT3 (Homo sapiens, UniProt P40763)
T1 construct: Recombinant human STAT3 protein (Abnova, cat no. H00006774-P01)
Assay: intrinsic fluorescence quenching titration (ex […] nm, em […] nm)
Type: binding

T1 sequence (P40763 2-770): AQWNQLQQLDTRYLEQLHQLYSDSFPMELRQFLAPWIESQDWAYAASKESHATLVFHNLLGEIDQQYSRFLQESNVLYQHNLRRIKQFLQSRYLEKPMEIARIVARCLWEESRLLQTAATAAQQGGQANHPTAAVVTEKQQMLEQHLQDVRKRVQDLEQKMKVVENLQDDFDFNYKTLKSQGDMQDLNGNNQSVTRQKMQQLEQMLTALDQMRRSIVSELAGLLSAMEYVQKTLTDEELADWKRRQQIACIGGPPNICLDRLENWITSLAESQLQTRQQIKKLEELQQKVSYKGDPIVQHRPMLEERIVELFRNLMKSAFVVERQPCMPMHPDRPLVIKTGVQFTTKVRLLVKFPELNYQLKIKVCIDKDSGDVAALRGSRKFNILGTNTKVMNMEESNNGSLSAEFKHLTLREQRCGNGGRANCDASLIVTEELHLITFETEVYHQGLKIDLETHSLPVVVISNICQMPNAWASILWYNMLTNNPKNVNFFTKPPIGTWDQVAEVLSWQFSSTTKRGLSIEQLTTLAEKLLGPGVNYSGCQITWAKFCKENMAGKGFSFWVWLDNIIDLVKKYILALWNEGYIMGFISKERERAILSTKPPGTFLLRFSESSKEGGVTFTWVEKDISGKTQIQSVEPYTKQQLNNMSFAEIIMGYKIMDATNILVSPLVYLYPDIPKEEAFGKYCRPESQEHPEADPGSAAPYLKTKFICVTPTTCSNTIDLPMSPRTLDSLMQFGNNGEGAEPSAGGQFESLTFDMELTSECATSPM

Kd: 26.8 µM
Structure (SMILES): C=C(C(=O)c1ccc2c(c1)C=CC(C)(C)O2)c1ccc(OC)c(OC)c1 [compound 4, 2-(3,4-Dimethoxyphenyl)-1-(2,2-Dimethyl-2H-Chromen-6-yl)Prop-2-en-1-One]
